Where a name gives a salt, the structure may show the parent alone.
How the values were obtained:
[1] = target: T1, indoleamine 2, 3-dioxygenase (IDO1) (Homo sapiens, UniProt P14902); assay: PBMC IDOi assay (kynurenine detection by mass spectrometry); format: cell-based; details: IFN-γ and LPS stimulated human PBMC, 2 days
Description: Compounds of the present invention were tested via high-throughput cellular assays utilizing detection of kynurenine via mass spectrometry and cytotoxicity as end-points. For the mass spectrometry and cytotoxicity assays, human peripheral blood mononuclear cells (PBMC) (PB003F; AllCells®, Alameda, Calif.) were stimulated with human interferon-γ (IFN-γ) (Sigma-Aldrich Corporation, St. Louis, Mo.) and lipopolysaccharide from Salmonella minnesota (LPS) (Invivogen, San Diego, Calif.) to induce the expression of indoleamine 2, 3-dioxygenase (IDO1). Compounds with IDO1 inhibitory properties decreased the amount of kynurenine produced by the cells via the tryptophan catabolic pathway. Cellular toxicity due to the effect of compound treatment was measured using CellTiter-Glo® reagent (CTG) (Promega Corporation, Madison, Wis.), which is based on luminescent detection of ATP, an indicator of metabolically active cells.
In preparation for the assays, test compounds were serially diluted 3-fold in DMSO from a typical top concentration of 5 mM and plated at 0.5 μL in 384-well, polystyrene, clear bottom, tissue culture treated plates with lids (Greiner Bio-One, Kremsmünster, Austria) to generate 11-point dose response curves. Low control wells (0% kynurenine or 100% cytotoxicity) contained either 0.5 μL of DMSO in the presence of unstimulated (−IFN-γ/−LPS) PBMCs for the mass spectrometry assay or 0.5 μL of DMSO in the absence of cells for the cytotoxicity assay, and high control wells (100% kynurenine or 0% cytotoxicity) contained 0.5 μL of DMSO in the presence of stimulated (+IFN-γ/+LPS) PBMCs for both the mass spectrometry and cytotoxicity assays.
Frozen stocks of PBMCs were washed and recovered in RPMI 1640 medium (Thermo Fisher Scientific, Inc., Waltham, Mass.) supplemented with 10% v/v heat-inactivated fetal bovine serum (FBS) (Thermo Fisher Scientific, Inc., Waltham, Mass.), and 1× penicillin-streptomycin antibiotic solution (Thermo Fisher Scientific, Inc., Waltham, Mass.). The cells were diluted to 1,000,000 cells/mL in the supplemented RPMI 1640 medium. 50 μL of either the cell suspension, for the mass spectrometry assay, or medium alone, for the cytotoxicity assay, were added to the low control wells, on the previously prepared 384-well compound plates, resulting in 50,000 cells/well or 0 cells/well respectively. IFN-γ and LPS were added to the remaining cell suspension at final concentrations of 100 ng/ml and 50 ng/ml respectively, and 50 μL of the stimulated cells were added to all remaining wells on the 384-well compound plates. The plates, with lids, were then placed in a 37° C., 5% CO2 humidified incubator for 2 days.
Following incubation, the 384-well plates were removed from the incubator and allowed to equilibrate to room temperature for 30 minutes. For the cytotoxicity assay, CellTiter-Glo® was prepared according to the manufacturer's instructions, and 40 μL were added to each plate well. After a twenty minute incubation at room temperature, luminescence was read on an EnVision® Multilabel Reader (PerkinElmer Inc., Waltham, Mass.). For the mass spectrometry assay, 10 μL of supernatant from each well of the compound-treated plates were added to 40 μL of acetonitrile, containing 10 μM of an internal standard for normalization, in 384-well, polypropylene, V-bottom plates (Greiner Bio-One, Kremsmünster, Austria) to extract the organic analytes. Following centrifugation at 2000 rpm for 10 minutes, 10 μL from each well of the acetonitrile extraction plates were added to 90 μL of sterile, distilled H2O in 384-well, polypropylene, V-bottom plates for analysis of kynurenine and the internal standard on the RapidFire 300 (Agilent Technologies, Santa Clara, Calif.) and 4000 QTRAP MS (SCIEX, Framingham, Mass.). MS data were integrated using Agilent Technologies' RapidFire Integrator software, and data were normalized for analysis as a ratio of kynurenine to the internal standard. […]

[2] = target: T1, indoleamine 2, 3-dioxygenase (IDO1); assay: HeLa IDOi assay (kynurenine detection by mass spectrometry); format: cell-based; design: human epithelial HeLa cells (CCL-2; host or cells: HeLa cells stimulated with human IFN-γ; details: IFN-γ stimulated human epithelial HeLa cells, 2 days
Summary of the method: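 HeLa cells (5,000/well) stimulated with 10 nM IFN-γ to induce IDO1 were exposed to 11-point compound dilutions for 2 days at 37 °C. Supernatant kynurenine was measured by RapidFire MS as a ratio to internal standard; cytotoxicity was read with CellTiter-Glo. Four-parameter fits gave pIC50 and pCC50.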

T1 sequence (P14902 whole entry): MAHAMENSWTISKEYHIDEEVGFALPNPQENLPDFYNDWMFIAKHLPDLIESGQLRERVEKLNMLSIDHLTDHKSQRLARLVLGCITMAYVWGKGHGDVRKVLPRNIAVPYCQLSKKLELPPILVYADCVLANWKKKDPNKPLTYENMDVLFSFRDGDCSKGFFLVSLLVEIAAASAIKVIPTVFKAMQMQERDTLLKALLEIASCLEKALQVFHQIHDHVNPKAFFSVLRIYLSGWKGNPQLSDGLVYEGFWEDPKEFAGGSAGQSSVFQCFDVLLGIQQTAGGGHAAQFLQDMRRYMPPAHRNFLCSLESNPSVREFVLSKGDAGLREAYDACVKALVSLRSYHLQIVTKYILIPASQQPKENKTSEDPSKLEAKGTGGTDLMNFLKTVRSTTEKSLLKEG

Structure (SMILES)	EC50 [1]	EC50 [2]
CC(C)CN(CC(C)C)c1ccc(C(C)CC(=O)O)cc1Nc1nnc(C(F)(F)F)s1 (stereo not drawn) [Example 55, 3-(4-(diisobutylamino)-3-((5-(trifluoromethyl)-1,3,4-thiadiazol-2-yl)amino)phenyl)butanoic acid, 2,2,2-trifluoroacetic acid salt]	0.631 nM	3.16 nM
CC(C)CN(CC(C)C)c1ccc(C(C)CC(=O)O)cc1Nc1cnccn1 (stereo not drawn) [Example 58, 3-(4-(diisobutylamino)-3-(pyrazin-2-ylamino)phenyl)butanoic acid]	158 nM	316 nM
Cc1nc(C(F)(F)F)sc1Nc1cc(C(C)CC(=O)O)ccc1N(CC(C)C)CC(C)C (stereo not drawn) [Example 60, 3-(4-(diisobutylamino)-3-((4-methyl-2-(trifluoromethyl)thiazol-5-yl)amino)phenyl)butanoic acid]	398 nM	501 nM
CC(C)CN(CC(C)C)c1ccc(C(C)CC(=O)O)cc1Nc1cnc(C2CC2)s1 (stereo not drawn) [Example 61, 3-(3-((2-cyclopropylthiazol-5-yl)amino)-4-(diisobutylamino)phenyl)butanoic acid]	31.6 nM	63.1 nM
CC(C)CN(c1ccc(C(CC(=O)O)C(F)(F)F)cc1Nc1nc(Cl)ns1)C1CCCCC1 (stereo not drawn) [Example 71, 3-(3-((3-Chloro-1,2,4-thiadiazol-5-yl)amino)-4-(cyclohexyl(isobutyl)amino)phenyl)-4,4,4-trifluorobutanoic Acid]	0.794 nM	6.31 nM
CC(C)CN(c1ccc(C(C)CC(=O)O)cc1NC1=N[C@H](C(F)(F)F)CS1)C1CCCCC1 (stereo partly drawn) [Example 75, 3-(4-(Cyclohexyl(isobutyl)amino)-3-(((R)-4-(trifluoromethyl)-4,5-dihydrothiazol-2-yl)amino)phenyl)butanoic Acid]	63.1 nM	31.6 nM

The next lines start with the values.

EC50 [1]	EC50 [2]	Structure (SMILES)
0.251 nM	3.16 nM	CC(C)CN(c1ccc([C@H](C)CC(=O)O)cc1Nc1nnc(C2CC2)s1)C1CCCCC1 [Example 56, (R)-3-(4-(cyclohexyl(isobutyl)amino)-3-((5-cyclopropyl-1,3,4-thiadiazol-2-yl)amino)phenyl)butanoic acid]
0.631 nM	2 nM	CC(C)CN(c1ccc([C@@H](C)CC(=O)O)cc1Nc1nnc(C2CC2)s1)C1CCCCC1 [Example 57, (S)-3-(4-(cyclohexyl(isobutyl)amino)-3-((5-cyclopropyl-1,3,4-thiadiazol-2-yl)amino)phenyl)butanoic acid]
200 nM	501 nM	CC(C)CN(c1ccc(C(C)CC(=O)O)cc1NCc1ccco1)C1CCCCC1 (stereo not drawn) [Example 59, 3-(4-(cyclohexyl(isobutyl)amino)-3-((furan-2-ylmethyl)amino)phenyl)butanoic acid]
2.51 nM	3.98 nM	CC(C)CN(c1ccc([C@@H](C)CC(=O)O)cc1Nc1ccnc(Cl)n1)C1CCCCC1 [Example 62, (S)-3-(3-((2-chloropyrimidin-4-yl)amino)-4-(cyclohexyl(isobutyl)amino)phenyl)butanoic acid]
20 nM	31.6 nM	CC(C)CN(c1ccc([C@H](C)CC(=O)O)cc1Nc1ccnc(Cl)n1)C1CCCCC1 [Example 63, (R)-3-(3-((2-chloropyrimidin-4-yl)amino)-4-(cyclohexyl(isobutyl)amino)phenyl)butanoic acid]
20 nM	31.6 nM	CC(C)CN(c1ccc(C(C)CC(=O)O)cc1NC1=N[C@@H](C(F)(F)F)CO1)C1CCCCC1 (stereo partly drawn) [Example 76, 3-(4-(Cyclohexyl(isobutyl)amino)-3-(((R)-4-(trifluoromethyl)-4,5-dihydrooxazol-2-yl)amino)phenyl)butanoic acid]

From patent US10472336B2, “Modulators of indoleamine 2,3-dioxygenase” (GlaxoSmithKline Intellectual Property (No.2) Limited, priority 2015, dated 2019)
